Where two headings read alike, the source gives them in different places.

This assay addresses T1, purified catalytic domain of recombinant human TACE (rhTACEc) (Homo sapiens, UniProt P78536, N452Q/S266A).
T1 construct: rhTACEc, Residue 215 to 477 with two mutation (S266A and N452Q) and a 6xHis tail; 6xHis (C); made in house; host or cells: baculovirus/Hi5 insect cells
The experiment in a line: TACE kinetic assay, cleavage of internally quenched fluorescent peptide substrate SPDL-3. The assay is classed as biochemical. The method, then: TACE activity is determined by a kinetic assay measuring the rate of increase in fluorescent intensity generated by TACE catalyzed cleavage of an internally quenched peptide substrate (SPDL-3). […] It is purified from the baculovirus/Hi5 cells expression system using affinity chromatography. […] MCA is (7-Methoxycoumarin-4-yl)acetyl. Dpa is N-3-(2,4-Dinitrophenyl)-L-2,3-diaminopropionyl.
A 50 μl assay mixture contains 20 mM HEPES, pH 7.3, 5 mM CaCl2, 100 µM ZnCl2, 2% DMSO, 0.04% Methylcellulose, 30 μM SPDL-3, 70 pM rhTACEc and a test compound. RhTACEc is pre-incubated with the testing compound for 90 min. at 25° C. Reaction is started by addition of the substrate. […] Rate of enzymatic reaction is shown as Units per second. Effect of a test compound is shown as % of TACE activity in the absence of the compound.

The mark [1] stands for this setting: TACE inhibition, Table 1, read-out: Ki Rating.
The mark [2] stands for this setting: Specific TACE inhibitory activity of representative compounds, read-out: Ki.

T1 sequence (P78536 215-477 S266A/N452Q): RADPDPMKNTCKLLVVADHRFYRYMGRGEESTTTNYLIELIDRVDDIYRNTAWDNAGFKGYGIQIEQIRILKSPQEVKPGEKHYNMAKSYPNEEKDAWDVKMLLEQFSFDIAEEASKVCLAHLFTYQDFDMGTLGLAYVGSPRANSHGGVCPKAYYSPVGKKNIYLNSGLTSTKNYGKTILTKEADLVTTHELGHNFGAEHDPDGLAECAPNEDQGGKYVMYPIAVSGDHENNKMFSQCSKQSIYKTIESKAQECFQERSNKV

One may read the Ki as a dissociation constant, usually derived from enzyme kinetics or from competition with a known ligand. For the compound `CCOC(=O)CC1(CN2Cc3ccc(OC)cc3C2=O)NC(=O)NC1=O` (stereo not drawn) [Compound 1], the Ki under setting [1] lay within 10 to 100 nM. For the compound `COc1ccc2c(c1)C(=O)N(CC1(CC(=O)O)NC(=O)NC1=O)C2` (stereo not drawn) [Compound 2], the Ki under setting [1] was 100 to 1000 nM. Regarding `COc1ccc2c(c1)C(=O)N(CC1(CC(=O)N3CCOCC3)NC(=O)NC1=O)C2` (stereo not drawn) [Compound 3], the Ki under setting [1] was 10 to 100 nM. For the compound `COc1ccc2c(c1)C(=O)N(CC1(CC(=O)N[C@@H](C)c3ccccc3)NC(=O)NC1=O)C2` (stereo partly drawn) [Compound 4], the Ki under setting [1] fell in the range of 10 to 100 nM. On to `COc1ccc2c(c1)C(=O)N(CC1(CC(=O)N3CCCC3)NC(=O)NC1=O)C2` (stereo not drawn) [Compound 5], for which, under setting [1], the Ki was under 10 nM. As to `COc1ccc2c(c1)C(=O)N(CC1(CC(=O)NC3CCCCC3)NC(=O)NC1=O)C2` (stereo not drawn) [Compound 6], the Ki under setting [1] was in the range of 10 to 100 nM. As to `COc1ccc2c(c1)C(=O)N(CC1(CC(=O)NC(C)C)NC(=O)NC1=O)C2` (stereo not drawn) [Compound 7], under setting [1], the Ki lay within 10 to 100 nM.

`CCN(CC)C(=O)CC1(CN2Cc3ccc(OC)cc3C2=O)NC(=O)NC1=O` (stereo not drawn) [Compound 8]: the Ki under setting [1] was in the range of 10 to 100 nM. Regarding `COc1ccc2c(c1)C(=O)N(CC1(CC(=O)N3CCCCC3)NC(=O)NC1=O)C2` (stereo not drawn) [Compound 9], under setting [1], the Ki was under 10 nM. With `COc1ccc2c(c1)C(=O)N(CC1(CC(=O)Nc3nc4ccccc4s3)NC(=O)NC1=O)C2` (stereo not drawn) [Compound 10], the Ki under setting [1] was under 10 nM.

As for `COc1ccc2c(c1)C(=O)N(CC1(CC(=O)NCC(C)C)NC(=O)NC1=O)C2` (stereo not drawn) [Compound 11], the Ki under setting [1] was in the range of 10 to 100 nM. On the same count and under the same terms, as for `COc1ccc2c(c1)C(=O)N(CC1(CC(=O)NCC3CCCO3)NC(=O)NC1=O)C2` (stereo not drawn) [Compound 12], the figure is 10 to 100 nM; as for `COc1ccc2c(c1)C(=O)N(CC1(CC(=O)N3CCN(C)CC3)NC(=O)NC1=O)C2` (stereo not drawn) [Compound 13], 10 to 100 nM. The same measure, in the same setting: as for `COc1ccc2c(c1)C(=O)N(CC1(CC(=O)N3CCC(Cc4ccccc4)CC3)NC(=O)NC1=O)C2` (stereo not drawn) [Compound 14], the figure is under 10 nM; as for `COc1ccc2c(c1)C(=O)N(CC1(CC(=O)N3CCc4ccccc4C3C3CC3)NC(=O)NC1=O)C2` (stereo not drawn) [Compound 15], under 10 nM; as for `COc1ccc2c(c1)C(=O)N(CC1(CC(=O)N3CCC(C#N)(c4ccccc4)CC3)NC(=O)NC1=O)C2` (stereo not drawn) [Compound 16], 10 to 100 nM. As for `COc1ccc2c(c1)C(=O)N(CC1(CC(=O)N3Cc4ccccc4C3)NC(=O)NC1=O)C2` (stereo not drawn) [Compound 17], under setting [1], the Ki fell in the range of 10 to 100 nM. Take `COc1ccc2c(c1)CN(CC1(c3ccc(C#CCN(C)C)cc3)NC(=O)NC1=O)C2=O` (stereo not drawn) [Compound 18]: under setting [1], the Ki was under 10 nM.

As for `CN(C)CC#Cc1ccc([C@]2(CN3Cc4ccc(O)cc4C3=O)NC(=O)NC2=O)cc1` [Compound 19], the Ki under setting [1] lay in the range of 10 to 100 nM. The same measure, in the same setting: for `COc1ccc2c(c1)CN(CC1(c3ccc(C#CCO)cc3)NC(=O)NC1=O)C2=O` (stereo not drawn) [Compound 20] the value was under 10 nM; for `COc1ccc2c(c1)C(=O)N(C[C@]1(c3ccc(C#Cc4ccccn4)cc3)NC(=O)NC1=O)C2` [Compound 21], 10 to 100 nM. Take `COc1ccc2c(c1)C(=O)N(C[C@@]1(c3ccc(C#Cc4ccccn4)cc3)NC(=O)NC1=O)C2` [Compound 22]: the Ki under setting [1] is under 10 nM. Consider `COc1ccc2c(c1)C(=O)N(C[C@@]1(c3ccc(-c4ccnc(C(N)=O)c4)cc3)NC(=O)NC1=O)C2` [Compound 23], for which, under setting [1], the Ki is under 10 nM. Turning to `O=C1NC(=O)C(CN2Cc3ccsc3C2=O)(c2ccc(F)cc2)N1` (stereo not drawn) [Compound 26], the Ki under setting [1] was 10 to 100 nM. For the compound `O=C1NC(=O)C(CN2Cc3ncccc3C2=O)(c2ccc(F)cc2)N1` (stereo not drawn) [Compound 27], the Ki under setting [1] was over 1000 nM. Regarding `O=C1NC(=O)C(CN2Cc3c[nH]c(=O)cc3C2=O)(c2ccc(F)cc2)N1` (stereo not drawn) [Compound 29], the Ki under setting [1] was in the range of 10 to 100 nM. On the same count and under the same terms, as for `COC(=O)c1ccc(C2(CN3Cc4ccc(OC)cc4C3=O)NC(=O)NC2=O)cc1` (stereo not drawn) [Compound 30], the figure is under 10 nM; as for `COc1ccc2c(c1)C(=O)N(CC1(c3ccc(C(=O)O)cc3)NC(=O)NC1=O)C2` (stereo not drawn) [Compound 32], under 10 nM; as for `COc1ccc2c(c1)C(=O)N(CC1(c3ccc(S(C)(=O)=O)cc3)NC(=O)NC1=O)C2` (stereo not drawn) [Compound 33], under 10 nM. For `COc1ccc2c(c1)C(=O)N(CC1(c3ccc(C(=O)N(C)C)cc3)NC(=O)NC1=O)C2` (stereo not drawn) [Compound 34], the Ki under setting [1] is 10 to 100 nM. On to `N#Cc1ccc2c(c1)CN(CC1(c3ccc(F)cc3)NC(=O)NC1=O)C2=O` (stereo not drawn) [Compound 35], for which, under setting [1], the Ki fell in the range of 10 to 100 nM. Consider `O=C(O)Cc1ccc2c(c1)CN(CC1(c3ccc(F)cc3)NC(=O)NC1=O)C2=O` (stereo not drawn) [Compound 36], for which the Ki under setting [1] was in the range of 100 to 1000 nM.

For the compound `NC(=O)Cc1ccc2c(c1)CN(CC1(c3ccc(F)cc3)NC(=O)NC1=O)C2=O` (stereo not drawn) [Compound 37], the Ki under setting [1] was in the range of 10 to 100 nM. In the case of `COc1ccc2c(c1)C(=O)N(C[C@@]1(c3cc4cc(C#N)cnc4o3)NC(=O)NC1=O)C2` [Compound 38], the Ki under setting [1] was under 10 nM.

For `COc1ccc2c(c1)C(=O)N(C[C@@]1(c3cc4cc(C(=O)O)cnc4o3)NC(=O)NC1=O)C2` [Compound 39], under setting [1], the Ki was under 10 nM. Still for that read-out and setting: as for `COC(=O)c1ccc([C@@]2(CN3Cc4ccc(OC)cc4C3=O)NC(=O)NC2=O)cc1` [Compound 40], the figure is 10 to 100 nM; as for `COC(=O)c1ccc([C@]2(CN3Cc4ccc(OC)cc4C3=O)NC(=O)NC2=O)cc1` [Compound 41], under 10 nM; as for `COc1ccc2c(c1)C(=O)N(C[C@]1(c3ccc(S(C)(=O)=O)cc3)NC(=O)NC1=O)C2` [Compound 42], 100 to 1000 nM. Consider `COc1ccc2c(c1)C(=O)N(C[C@@]1(c3ccc(S(C)(=O)=O)cc3)NC(=O)NC1=O)C2` [Compound 43], for which the Ki runs as follows: under setting [2], 0.26 nM; under setting [1], under 10 nM. For the compound `COc1ccc2c(c1)C(=O)N(C[C@@]1(c3cc4cc(S(C)(=O)=O)ccc4o3)NC(=O)NC1=O)C2` [Compound 44], under setting [1], the Ki is under 10 nM. Same read-out and setting: as for `COC(=O)c1ncccc1C(=O)C[C@]1(CN2Cc3ccc(OC)cc3C2=O)NC(=O)NC1=O` [Compound 45], the figure is 10 to 100 nM. With `COc1ccc2c(c1)C(=O)N(C[C@@]1(c3cc4ncccc4n3C(=O)OC(C)(C)C)NC(=O)NC1=O)C2` [Compound 46], the Ki under setting [1] is under 10 nM.

In the case of `COc1ccc2c(c1)C(=O)N(C[C@@]1(CCc3ccc(F)c(C(N)=O)c3)NC(=O)NC1=O)C2` [Compound 47], the Ki under setting [1] was in the range of 10 to 100 nM. On to `COc1ccc2c(c1)C(=O)N(C[C@@]1(/C(Cc3c[nH]c(=O)c(C)c3)=N/O)NC(=O)NC1=O)C2` [Compound 48], for which the Ki under setting [1] lay in the range of 10 to 100 nM. As to `COc1ccc2c(c1)C(=O)N(C[C@@]1(c3cc4nc(SC)ccc4o3)NC(=O)NC1=O)C2` [Compound 49], the Ki under setting [1] is under 10 nM. In the case of `COc1ccc2c(c1)C(=O)N(C[C@@]1(c3cc4nc(S(C)(=O)=O)ccc4o3)NC(=O)NC1=O)C2` [Compound 50], the Ki was 1.04 nM under setting [2] and under 10 nM under setting [1]. Take `COc1ccc2c(c1)C(=O)N(C[C@@]1(c3ccc(-c4ccccc4C(N)=O)cc3)NC(=O)NC1=O)C2` [Compound 51]: the Ki under setting [1] is under 10 nM. On to `COC(=O)c1cc(-c2ccc([C@]3(CN4Cc5ccc(OC)cc5C4=O)NC(=O)NC3=O)cc2)cnc1N` [Compound 52], for which, under setting [1], the Ki was under 10 nM. Same read-out and setting: as for `COC(=O)c1cc(C)nc(-c2ccc([C@]3(CN4Cc5ccc(OC)cc5C4=O)NC(=O)NC3=O)cc2)c1` [Compound 53], the figure is under 10 nM; as for `COC(=O)c1cnc(-c2ccc([C@]3(CN4Cc5ccc(OC)cc5C4=O)NC(=O)NC3=O)cc2)cn1` [Compound 54], under 10 nM. As to `COC(=O)c1ccnc(-c2ccc(C3(CN4Cc5ccc(OC)cc5C4=O)NC(=O)NC3=O)cc2)c1` (stereo not drawn) [Compound 55], the Ki under setting [1] is under 10 nM.

With `COc1ccc2c(c1)C(=O)N(C[C@@]1(c3ccc(-c4cncc(C(=O)NC5CC5)c4)cc3)NC(=O)NC1=O)C2` [Compound 56], the Ki under setting [1] is under 10 nM.

`COC(=O)c1cccnc1-c1ccc([C@]2(CN3Cc4ccc(OC)cc4C3=O)NC(=O)NC2=O)cc1` [Compound 57]: under setting [1], the Ki was under 10 nM. Same read-out and setting: as for `COc1ccc2c(c1)C(=O)N(C[C@@]1(c3ccc(-c4cncc(C(N)=O)c4)cc3)NC(=O)NC1=O)C2` [Compound 58], the figure is under 10 nM; as for `COc1ccc2c(c1)C(=O)N(C[C@@]1(c3ccc(-c4cc(C(N)=O)ccn4)cc3)NC(=O)NC1=O)C2` [Compound 59], under 10 nM. Regarding `COc1ccc2c(c1)C(=O)N(C[C@@]1(c3ccc(-c4cc(C(=O)NC5CC5)ccn4)cc3)NC(=O)NC1=O)C2` [Compound 60], the Ki under setting [1] is under 10 nM.

For the compound `CNC(=O)c1cccnc1-c1ccc([C@]2(CN3Cc4ccc(OC)cc4C3=O)NC(=O)NC2=O)cc1` [Compound 61], the Ki under setting [1] was under 10 nM.

Regarding `COc1ccc2c(c1)C(=O)N(C[C@@]1(c3ccc(-c4ncccc4C(=O)NC4CC4)cc3)NC(=O)NC1=O)C2` [Compound 62], the Ki under setting [1] was under 10 nM.

Take `COc1ccc2c(c1)C(=O)N(C[C@@]1(c3ccc(-c4ncccc4C(=O)N(C)C)cc3)NC(=O)NC1=O)C2` [Compound 63]: under setting [1], the Ki was under 10 nM.

On to `COc1ccc2c(c1)C(=O)N(C[C@@]1(c3ccc(-c4cc(C(=O)NC5CC5)cc(C)n4)cc3)NC(=O)NC1=O)C2` [Compound 64], for which the Ki under setting [2] stood at 0.15 nM and the Ki under setting [1] is under 10 nM. As to `COc1ccc2c(c1)C(=O)N(C[C@@]1(c3ccc(-c4cnc(N)c(C(=O)NC5CC5)c4)cc3)NC(=O)NC1=O)C2` [Compound 65], the Ki under setting [1] was under 10 nM. In the case of `COc1ccc2c(c1)C(=O)N(C[C@@]1(c3ccc(-c4ncccc4C#N)cc3)NC(=O)NC1=O)C2` [Compound 66], the Ki is 0.09 nM under setting [2] and under 10 nM under setting [1].

Values taken from patent US8178553B2, “Compounds for the treatment of inflammatory disorders” (Schering Corporation, priority 2006, dated 2012).
